According to ChEMBL document CHEMBL5223109, “The discovery of BMS-737 as a potent, CYP17 lyase-selective inhibitor for the treatment of castration-resistant prostate cancer” (Bioorg Med Chem Lett, 2022):

Assays:
Cytochrome P450 1A2 = molecular target: T1, Cytochrome P450 1A2 (Homo sapiens, UniProt P05177); test: Inhibition of CYP1A2 (unknown origin); type: ADME
T1 sequence (P05177 whole entry): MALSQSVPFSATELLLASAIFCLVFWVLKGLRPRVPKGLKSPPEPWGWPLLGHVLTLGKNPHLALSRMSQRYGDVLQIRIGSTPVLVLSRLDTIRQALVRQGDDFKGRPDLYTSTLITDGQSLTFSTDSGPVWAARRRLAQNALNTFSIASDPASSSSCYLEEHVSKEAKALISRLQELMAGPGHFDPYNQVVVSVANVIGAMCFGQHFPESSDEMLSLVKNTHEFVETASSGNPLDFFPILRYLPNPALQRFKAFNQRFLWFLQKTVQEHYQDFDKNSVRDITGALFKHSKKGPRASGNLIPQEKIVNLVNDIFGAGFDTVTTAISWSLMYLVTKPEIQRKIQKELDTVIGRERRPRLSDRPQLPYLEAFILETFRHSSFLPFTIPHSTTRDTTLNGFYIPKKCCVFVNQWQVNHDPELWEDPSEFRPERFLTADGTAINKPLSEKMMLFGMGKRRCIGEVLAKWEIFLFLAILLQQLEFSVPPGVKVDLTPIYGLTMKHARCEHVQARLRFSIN

[1] = Metabolic stability in human liver microsomes assessed as parent compound remaining relative to control; type: ADME, Microsome; also: time not given here
[2] = molecular target: T2, Steroid 17-alpha-hydroxylase/17,20 lyase (Homo sapiens, UniProt P05093); test: Selectivity ratio for inhibition of human CYP17A1 hydroxylase activity to inhibition of human CYP17A1 lyase activity; type: ADME
T2 sequence (P05093 whole entry): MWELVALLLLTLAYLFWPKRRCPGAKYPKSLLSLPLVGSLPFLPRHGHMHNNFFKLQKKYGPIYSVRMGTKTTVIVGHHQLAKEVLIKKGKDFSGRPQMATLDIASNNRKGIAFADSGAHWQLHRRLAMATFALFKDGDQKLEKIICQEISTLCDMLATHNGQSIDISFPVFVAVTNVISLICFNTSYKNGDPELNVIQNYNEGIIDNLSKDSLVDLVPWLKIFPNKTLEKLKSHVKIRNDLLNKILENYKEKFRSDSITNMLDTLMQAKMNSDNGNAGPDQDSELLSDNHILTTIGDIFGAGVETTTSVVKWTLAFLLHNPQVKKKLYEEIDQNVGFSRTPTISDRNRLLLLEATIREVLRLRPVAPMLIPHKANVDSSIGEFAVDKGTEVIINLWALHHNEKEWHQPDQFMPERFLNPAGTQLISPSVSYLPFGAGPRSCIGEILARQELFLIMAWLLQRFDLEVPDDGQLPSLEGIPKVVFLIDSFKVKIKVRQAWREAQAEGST

[3] = Metabolic stability in mouse liver microsomes assessed as parent compound remaining; type: ADME, Microsome; also: time not given here
[4] = Metabolic stability in rat liver microsomes assessed as parent compound remaining; type: ADME, Microsome; also: time not given here
[5] = molecular target: T2, Steroid 17-alpha-hydroxylase/17,20 lyase; test: Inhibition of human CYP17A1; type: ADME

| Compound | IC50 (Cytochrome P450 1A2) [µM] | Stability [1] [%] | Stability [3] [%] | Stability [4] [%] | IC50 [5] [µM] | Ratio [2] |
| --- | --- | --- | --- | --- | --- | --- |
| Cc1ccncc1-c1cccc2c(-c3ccccc3)noc12 | 0.028 | 80 | 5 | 6 | 0.001 | – |
| Cc1ccncc1-c1ccnc2c1cnn2-c1ccc(F)c(Cl)c1 | 0.662 | 85 | 2 | 37 | 0.024 | 10 |
| Nc1ncncc1-c1ccnc2c1cnn2-c1ncccc1C(F)(F)F | – | 98 | 62 | 84 | 0.011 | 4 |
| Cc1ccncc1-c1ccnc2c1cnn2-c1cccc(F)c1 | 0.281 | 76 | 4 | 9 | 0.027 | 36 |
| Cc1ccncc1-c1ccnn2c(-c3ccccc3)ccc12 | 0.18 | 70 | 7 | 3 | 0.005 | – |
| Cc1ccncc1-c1ccnn2c(-c3ccccc3)cnc12 | 0.318 | 100 | 26 | 47 | – | – |
| Cc1ccncc1-c1ccnc2c(-c3ccccc3)noc12 | 0.321 | 80 | 5 | 7 | 0.005 | – |
| COc1cccc(-n2ncc3c(-c4cnccc4C)ccnc32)c1 | 1.48 | 21 | 37 | 6 | 0.003 | – |
| Fc1ccc(-n2ncc3c(-c4cncnc4C4CC4)ccnc32)cc1 | 0.658 | 85 | 55 | 78 | 0.023 | 13 |
| Nc1ncncc1-c1ccnc2c1cnn2-c1ccc(F)cc1F | > 40 | 98 | 92 | 100 | 0.011 | 6 |
| Fc1ccc(-n2ncc3c(-c4cncn5cccc45)ccnc32)cc1 | 2.33 | 72 | 1 | 12 | > 1 | 13 |
| Cc1ccncc1-c1ccnc2c(-c3ccccc3)csc12 | 0.25 | 65 | 2 | 3 | 0.01 | – |
| Cc1ccncc1-c1ccnc2c1cnn2-c1ccc(F)cc1 | 0.384 | 100 | 27 | 43 | 0.006 | 43 |
| Fc1ccc(-n2ncc3c(-c4cncnc4NC4CC4)ccnc32)cc1 | 10.9 | 67 | 7 | 27 | 0.046 | 6 |
| Fc1ccc(-n2ncc3c(-c4cncnc4N4CC(F)(F)C4)ccnc32)cc1 | > 40 | 85 | 62 | 35 | 0.004 | 3 |
| Cc1ccncc1-c1cccc2c(-c3ccccc3)cnn12 | 0.034 | 79 | 6 | 3 | 0.002 | – |
| Cc1ccncc1-c1cccc2c1OCCN2c1ccccc1 | 0.14 | 62 | 2 | 0.8 | 0.008 | – |
| Nc1ccncc1-c1ccnc2c1cnn2-c1ccc(F)cc1 | 26.9 | 99 | 3 | 0.2 | 0.005 | 7 |

The next lines start with results.

| IC50 (Cytochrome P450 1A2) [µM] | Stability [1] [%] | Stability [3] [%] | Stability [4] [%] | IC50 [5] [µM] | Compound | Ratio [2] |
| --- | --- | --- | --- | --- | --- | --- |
| 4.74 | 77 | 2 | 0.2 | 0.014 | COc1c(F)cccc1-n1ncc2c(-c3cnccc3C)ccnc21 | 7 |
| 2.74 | – | – | – | – | Cc1ncncc1-c1ccnc2c1cnn2-c1ccc(F)cc1 | 4 |
| 0.216 | – | – | – | 0.096 | Fc1ccc(-n2ncc3c(-c4cccnc4)ccnc32)cc1 | – |
| 0.617 | 64 | 42 | 48 | 0.091 | Cc1ccncc1-c1ccnc2c1cnn2-c1nccs1 | – |
| 5.2 | 100 | 37 | 18 | 0.009 | Cc1ccncc1-c1ccnc2c1cnn2-c1ccc(F)cc1F | 19 |
| 11.2 | 92 | 41 | 30 | – | Cc1ccncc1-c1ccnc2c1cnn2CC(F)(F)F | 12 |
| 2.14 | 88 | 56 | 63 | 0.141 | Fc1ccc(-n2ncc3c(-c4cncnc4C(F)(F)F)ccnc32)cc1 | – |
| > 40 | – | – | – | > 1 | Cc1ccncc1-c1ccnc2c1cnn2C | – |
| 16.7 | 88 | 25 | 26 | 0.005 | Cc1ccncc1-c1ccnc2c1cnn2-c1ncccc1Cl | 7 |
| 5.14 | – | – | – | 0.8 | Cc1ccncc1-c1ccnc2c1cnn2Cc1ccc(F)cc1 | – |
| 0.56 | 73 | 7 | 4 | 0.007 | Cc1ccncc1-c1ccnc2c1cnn2-c1ccccc1 | – |
| 5.28 | – | 15 | 16 | 0.092 | Cc1ccncc1-c1ccnc2c1cnn2C(C)(C)C | – |
| > 40 | 100 | 95 | 89 | 0.099 | Nc1ncncc1-c1ccnc2c1cnn2-c1cccc(S(N)(=O)=O)c1 | – |
| > 40 | 100 | 70 | 100 | – | Nc1ncncc1-c1ccnc2c1cnn2-c1ccccn1 | – |
| 0.134 | 84 | 3 | 2 | 0.003 | Cc1ccncc1-c1cccc2c(-c3ccccc3)csc12 | – |
| 15.4 | 88 | 2 | 1 | 0.009 | COc1ccccc1-n1ncc2c(-c3cnccc3C)ccnc21 | – |
| 0.717 | 86 | 58 | 32 | 0.011 | COc1ccncc1-c1ccnc2c1cnn2-c1ccc(F)cc1 | 10 |
| 4.71 | 42 | 3 | 40 | 0.008 | Fc1ccc(-n2ncc3c(-c4cncnc4NCC(F)(F)F)ccnc32)cc1 | 3 |
| > 40 | – | 82 | 87 | 0.005 | Nc1ncncc1-c1ccnc2c1cnn2-c1c(F)cc(F)cc1F | 3 |
| > 40 | 100 | 68 | 94 | 0.014 | Nc1ncncc1-c1ccnc2c1cnn2-c1ccc(F)cc1C(F)(F)F | 3 |
| 0.058 | 100 | 37 | 56 | – | Cn1cncc1-c1ccnc2c1cnn2-c1ccc(F)cc1 | 30 |
| 8.7 | 74 | 14 | 0.9 | 0.004 | Cc1ccncc1-c1ccnc2c1cnn2-c1ccc(F)cc1Cl | 3 |
